Laboratory results reported in ChEMBL document CHEMBL1138777, “Frontal affinity chromatography with MS detection of EphB2 tyrosine kinase receptor. 1. Comparison with conventional ELISA” (J Med Chem, 2004).

What was measured:
[1] = Binding constant for EphB2 tyrosine kinase
[2] = Inhibition of EphB2 receptor tyrosine kinase in ELISA assay

Compound	Kd [1]	IC50 [2]
CN(C)c1ccc(/C=C2\C(=O)Nc3ccccc32)cc1	19.5 µM	27.5 µM
CC(C)(C)n1nc(-c2ccc(Cl)cc2)c2c(N)ncnc21	36.5 µM	52 µM
CNc1cc2c(Nc3cccc(Br)c3)ncnc2cn1	21.9 µM	34 µM

Continued, values first:

Kd [1]	IC50 [2]	Compound
2.4 µM	1.2 µM	COc1cc2ncnc(Nc3cccc(O)c3)c2cc1OC
8.1 µM	10.2 µM	COc1cc2ncnc(Nc3cccc(Br)c3)c2cc1OC
58.4 µM	86 µM	COc1cc2ncnc(Nc3ccc(Oc4ccccc4)cc3)c2cc1OC
